{"source": "patent US10392363B2", "about": "“Methods for treating protozoan infections” (Neoculi Pty Ltd., priority 2014, dated 2019)", "key": {"[1]": {"system": "Giardia WB (Giardia duodenalis)", "assay": "Resazurin Reduction Assay (Example 9)", "assay_type": "cell-based", "protocol": "Giardia trophozoites were grown until confluent. The media was replaced with fresh media and cold shocked for 40 minutes. Compounds were prepared in DMSO and serially diluted 2-fold in DMSO starting at with a 1/100 dilution of the stock (e.g. 128 mg/ml stock starting dilution would be […]). 2 μl of dilutions were added to the appropriate wells and 198 ul of TYI-S-33 media added to each well. Cells were diluted to a concentration of ˜500 000 cells/ml and 100 μl were added to each well of the assay plate (except media only control). The assay was incubated in an anaerobic environment (candle jar) for 5 hours at 37° C. The media was removed and replaced with 100 μl of warm PBS then Alamarblue™ added to a concentration of 10%. The samples were incubated in an anaerobic environment until colour development. After incubation, the absorbance of each sample was read at 570 and 630 nm. The percent reduction of resazurin (Alamarblue™) was calculated (using the formula below) and data was analysed with GraphPad Prism v6 software. The formula used to calculate percent reduction of Alamarblue was ((Eoxi630×A570)−(Eoxi570×A630))/((Ered570×C630)−(Ered×C570))×100, Where: Eoxi630=34798, Eoxi570=80586, A570=absorbance at 570 nm, A630=absorbance at 630 nm, Ered570=155677, Ered630=5494, C630=absorbance of negative control well at 630 nm and C570=absorbance of negative control well at 570 nm."}, "[2]": {"system": "S. aureus ATCC 29213", "assay": "S. aureus MIC", "assay_type": "cell-based", "conditions": "MIC after 24 hours"}, "[3]": {"system": "T. cruzi infection", "conditions": "cited from earlier work"}, "[4]": {"assay": "Cell toxicity assay (WST-1)", "assay_type": "cell-based, mouse", "conditions": "mouse, RAW 264.7 macrophages, RAW 264.7, 24 hours, read-out: GI50 macrophage", "protocol": "Cell toxicity assays. Mouse macrophages (RAW 264.7) were grown in RPM11640 media supplemented with L-glutamine and 10% foetal calf serum. Cells were trypsanised when 80% confluent and subcultured every 3-4 days. For cytotoxicity assays cells were diluted to a final cell concentration of 2×10^4 cells/ml and 198 μl added to each well of a 96 well plate. Cells were incubated in a humidified incubator for 2 hours at 37° C. 5% CO2 before the addition of NCL compounds (2 μl/well, previously diluted in DMSO). Campothecin, triton X and DMSO only were used as controls. Cells were exposed to the compounds for 24 hours. The metabolic activity of the cells was determined using the WST-1 assay system (Roche Life Science). The supernatant was removed, 100 μl of PBS with 10% WST-1 was added to each well and incubated for 1 hr before reading absorbance at 450 nm. The selectivity index of the compounds was determined by dividing the IC50 of macrophages by the IC50 against parasites. IC50 was determined via graphpad prism software."}, "[5]": {"system": "Leishmania donovani promastigotes", "assay": "L. donovani screening (Alamarblue)", "assay_type": "cell-based", "conditions": "for L. donovani SI: GI50 of macrophages divided by IC50 of parasites; for inhibition at 10 µM: 96 hrs, read-out: reduction of metabolic activity / inhibition of L. donovani", "protocol": "L. donovani Screening. Procyclic promastigotes from exponentially growing cultures maintained in DME-L+ Bob additions were used for all assays. Compounds were initially screened for activity at 10 μM. Compounds were diluted in culture media to a […] in 96 well plates. Promastigotes were diluted to a density of ˜8×10^5 cells/ml then added to the assay plate resulting in a final cell density of 4×10^5 cells/ml. in 96 well plates. Cells were incubated for 96 hrs at 27° C. before the addition of Alamarblue (thermofisher). Fluorescence was read at excitation 530 nm and Emission 590 nm. […] Compounds were serially diluted in thirds, in a 96 well plate, in cell growth media so that concentrations ranged from 0.005 to 10 μM and promastigotes added to a final concentration of 1×10^6 cells/ml. Cells were incubated at 27° C. for 72 hours before the addition of alamar blue. Fluorescence was measured as above."}, "[6]": {"assay": "Microsomal stability, human", "assay_type": "in vitro ADME", "conditions": "human liver microsomes", "protocol": "(§1) Incubation methods: The metabolic stability assay was performed by incubating each test compound (at 1 μM) with human and mouse liver microsomes (Xenotech, Lot#1210057 and 1310211, respectively) at 37° C. and 0.4 mg/mL protein concentration. The metabolic reaction was initiated by the addition of an NADPH-regenerating system (i.e. NADPH is the cofactor required for CYP450-mediated metabolism) and quenched at various time points over a 60 minute incubation period by the addition of acetonitrile containing diazepam as internal standard. Control samples (containing no NADPH) were included (and quenched at 2, 30 and 60 minutes) to monitor for potential degradation in the absence of cofactor. Analytical conditions: Instrument: Waters Micromass Xevo G2 QTOF coupled to a Waters Acquity UPLC; Detection: Positive electrospray ionisation under MSE mode; Cone Voltage 30 V; Column: Ascentis Express Amide column (50×2.1 mm, 2.7 μm); LC conditions: Gradient cycle time: 4 minutes; Injection volume: 5 μL; Flow rate: 0.4 mL/min; Mobile phase: Acetonitrile-water gradient with 0.05% formic acid Metabolite; Identification: A metabolite screen was not included in this study, however, since data was acquired using MSE mode, which allows for the simultaneous acquisition of low and high collision energy MS spectra, a post-hoc metabolite search may be conducted at a later date if warranted. […]"}, "[7]": {"assay": "Microsomal stability, mouse", "assay_type": "in vitro ADME", "conditions": "mouse liver microsomes", "protocol": "as §1"}, "[8]": {"system": "Trypanosoma cruzi (Tulahuen trypomastigotes expressing β-galactosidase, in L6 cells)", "assay": "In vitro T. cruzi assay for determination of IC50", "assay_type": "cell-based", "conditions": "Trypanosoma cruzi, TULAHUEN, L6; 96 h incubation", "protocol": "The T. cruzi assay uses Tulahuen trypomastigotes expressing the β-galactosidase gene. The parasites were maintained in vitro by serial passage in L6 cells. […] Extracellular trypomastigotes were then removed and NCL compounds were added in seven-point serial dilutions performed in triplicate. Benznidazole (Epichem Pty Ltd.) was included as a control. […] After 4-6 h, a colour change following catabolisation of the reagent by viable T. cruzi was observed and absorbance was read at 530 nm using a Dynex microplate reader. […] For each compound, % inhibition values were used to generate a standard curve from which the IC50 was calculated. Each assay was performed at least twice, and the average was used."}, "[9]": {"system": "sheep erythrocytes", "assay": "Erythrocyte haemolysis assay", "assay_type": "cell-based", "conditions": "compared to NCL812 and NCL062", "protocol": "Whole sheep blood was obtained from Thermofisher scientific. The red blood cells were separated from other blood components via centrifugation at 1500 g for 10 minutes and washed with saline 3 times. Erythrocytes were diluted to a concentration of ˜1×10^10 cells/ml in saline. 50 μl of NCL compounds diluted in DMSO (see below) were added to 1.5 ml Eppendorf tubes and 500 μl of diluted red blood cells were added to each tube. Erythrocytes were incubated with compounds for 30 minutes at 37° C. with gentle shaking (75 rpm). After incubation cells were placed on ice for 5 minutes then centrifuged at 1500 rpm for 10 minutes to pellet cells. The supernatant was removed and serially diluted in saline. Absorbance of the supernatant and dilutions were recorded at 550 nm. Sample lysis was compared relative to cells lysed 100% in distilled water and analysed using GraphPad Prism v6 software."}, "[10]": {"system": "Giardia duodenalis (strain WB trophozoites)", "assay": "Giardia adherence assay", "assay_type": "cell-based", "conditions": "NCL099 at 11, 38 and 128 μg/ml compared to the control", "protocol": "Giardia strain WB was grown until confluent (grown and maintained in TYI-S-33 medium with 10% foetal bovine serum). For the assay, media of a confluent culture was replaced with fresh TYI-S-33 medium. Cultures were then cold shocked (on ice) for 40 minutes to detach trophozoites. The cell density of the cultures was adjusted to 1×10^6 cells/ml and 1 ml was added to each well of a 24 well plate already containing 1 ml of diluted compounds (see below). […] After incubation the coverslips were removed, air-dried and stained with Diff-Quik (a Romanowski stain variant). Coverslips were mounted onto glass slides using polymount. Images at 10× magnification were taken at 5 random locations per coverslip. […] Stock solutions of compounds were prepared in DMSO at 25.6 mg/ml. Compounds were diluted 1:100 in TYI-S-33 medium. A 1:2 serial dilution was then performed in TYI-S-33 medium in 24 well plates."}, "[11]": {"assay": "Release from Formulation B (Franz diffusion cells)", "assay_type": "physicochemical", "conditions": "absolute ethanol receptor, 32° C., up to 24 hours", "protocol": "Franz diffusion cells were utilized to quantify the release rate of NCL 812 and NCL099 from its topical formulations. Five milliliters of absolute ethanol, which was chosen as the desired release medium, was loaded into the receptor chamber. Temperature of the receptor fluid was kept constant, at 32±1° C. using a water jacket. Acetyl cellulose membranes, with pore size of 0.45 μm (Pall Corporation) was selected and placed between donor and receptor chamber. Followed by that, a number of test samples (Formulation B) was loaded into the donor chamber. One milliliter of receptor fluid was collected at regular time intervals of 0.25, 0.50, 0.75, 1, 2, 3, 4, 5, 6, 7, 8 and 24 hours through the sampling port. One milliliter of fresh absolute ethanol was immediately returned to the receptor chamber. UV-HPLC was utilized to analyse the content of the receptor fluids attained."}}, "note": "“And” between values parts separate entries of the source, which are not always exact repeats. Equal values may be shown once.", "data": [{"molecule": "NC(N)=N/N=C(\\CC1CCCCC1)c1ccc(Cl)cc1O", "note": "[NCL237]", "values": [{"measurement": "Giardia WB IC50", "setting": "[1]; IC50 after 5 hours", "value": "22.8^ ug/ml"}, {"measurement": "S. aureus ATCC 29213 MIC", "setting": "[2]", "value": 4.8, "unit": "µg/mL"}]}, {"molecule": "O=C(Cn1ccnc1[N+](=O)[O-])NCc1ccccc1", "note": "[benznidazole]", "values": [{"measurement": "cure rate", "setting": "[3]; children with chronic T. cruzi infection, negative serology 3 to 4 years after treatment", "value": "around 60%"}]}, {"molecule": "C/C(=N\\NC(=N)N/N=C(\\C)c1ccc(C(C)(C)C)cc1)c1ccc(C(C)(C)C)cc1.Cl", "note": "[NCL219]", "values": [{"measurement": "IC50", "setting": "[1]; Giardia, 5 h", "value": "1.03 µM and 0.4 µg/mL"}, {"measurement": "GI50 at 24 h", "setting": "[4]", "value": "19.3 ± 3.77", "unit": "µM"}, {"measurement": "L. donovani SI", "setting": "[5]", "value": "highly selective"}, {"measurement": "L. donovani SI", "setting": "[5]; listed as NCL 219", "value": 24.08}, {"measurement": "IC50", "setting": "[5]; Leishmania donovani, 72 h", "value": "0.8 ± 0.1", "unit": "µM"}, {"measurement": "inhibition at 10 µM", "setting": "[5]; Leishmania donovani", "value": 100, "unit": "%"}, {"measurement": "MIC", "setting": "[2]; Staphylococcus aureus, ATCC29213", "value": "> 100", "unit": "µg/mL"}]}, {"molecule": "CC1CS(=O)(=O)CCN1/N=C/c1ccc([N+](=O)[O-])o1", "note": "(centres unmarked) [nifurtimox]", "values": [{"measurement": "patients with gastrointestinal side effects", "setting": "[3]; anorexia, weight loss, nausea, vomiting", "value": "up to 70%"}]}, {"molecule": "COc1ccccc1/C=N/NC(=N)N/N=C/c1ccccc1OC.Cl", "note": "[NCL028]", "values": [{"measurement": "rate of degradation", "setting": "[6]", "value": "low (low (<0.3))"}, {"measurement": "rate of degradation", "setting": "[7]", "value": "high (high (0.7-0.95))"}, {"measurement": "GI50 at 24 h", "setting": "[4]", "value": "8.1 ± 2.76", "unit": "µM"}, {"measurement": "IC50", "setting": "[8]", "value": 13, "unit": "µM"}, {"measurement": "IC50", "setting": "[5]; 72 hours", "value": "0.29 ± 0.05", "unit": "µM"}, {"measurement": "L. donovani SI", "setting": "[5]", "value": "highly selective"}, {"measurement": "L. donovani SI", "setting": "[5]; listed as NCL 028", "value": 27.9}, {"measurement": "IC50", "setting": "[5]; Leishmania donovani, 72 h", "value": 0.37, "unit": "µM"}, {"measurement": "inhibition at 10 µM", "setting": "[5]; Leishmania donovani", "value": 100, "unit": "%"}]}, {"molecule": "CC(C)(C)c1ccc(/C=N/NC(=N)N/N=C/c2ccc(C(C)(C)C)cc2)cc1.Cl", "note": "[NCL099]", "values": [{"measurement": "selectivity for bacterial and protozoal cells than mammalian cells", "setting": "[9]", "value": "greater selectivity"}, {"measurement": "number of adherent cells", "setting": "[10]", "value": "significant decrease"}, {"measurement": "GI50 at 24 h", "setting": "[4]", "value": "7.66 ± 0.56", "unit": "µM"}, {"measurement": "IC50", "setting": "[5]; Leishmania donovani, 72 h", "value": "0.37 ± 0.04", "unit": "µM"}, {"measurement": "inhibition at 10 µM", "setting": "[5]; Leishmania donovani", "value": 100, "unit": "%"}, {"measurement": "release profile from Formulation B", "setting": "[11]", "value": "acceptable release profile"}]}]}
